Source: PubChem BioAssay AID743457 (The Scripps Research Institute Molecular Screening Center, 2014)
Activity calls are given as the source filed them.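 How the source made its calls: active means IC50 at or below a set limit; inactive means IC50 above that limit.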

Target: Group 3 secretory phospholipase A2 (Homo sapiens) (UniProt Q9NZ20)
Assay: HGIII-sPLA2 enzyme inhibition potency – biochemical, QFRET, IC50, dose response (AID 743457)
Conditions: recombinant hGIII-sPLA2, BODIPY PC-A2 QFRET fluorescence

Group 3 secretory phospholipase A2 (Homo sapiens), sequence (Q9NZ20 whole entry, looked up): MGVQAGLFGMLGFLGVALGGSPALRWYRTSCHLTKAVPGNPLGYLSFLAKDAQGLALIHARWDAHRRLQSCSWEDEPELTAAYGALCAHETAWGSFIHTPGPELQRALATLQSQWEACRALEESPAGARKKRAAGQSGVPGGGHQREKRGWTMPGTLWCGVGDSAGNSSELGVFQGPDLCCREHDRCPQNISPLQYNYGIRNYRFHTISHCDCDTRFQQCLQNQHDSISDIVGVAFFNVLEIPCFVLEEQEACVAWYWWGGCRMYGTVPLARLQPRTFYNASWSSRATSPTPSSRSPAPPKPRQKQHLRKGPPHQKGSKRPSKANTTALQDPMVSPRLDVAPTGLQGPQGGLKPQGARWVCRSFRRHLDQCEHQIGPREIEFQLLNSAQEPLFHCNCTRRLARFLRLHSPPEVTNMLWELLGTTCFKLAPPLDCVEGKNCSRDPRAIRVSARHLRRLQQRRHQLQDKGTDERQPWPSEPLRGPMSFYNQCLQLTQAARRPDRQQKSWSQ

## CNC(=S)N/N=C/c1cc(Br)cc(Br)c1O
  IC50: > 122 µM (inactive)

## Cc1ccc2sc(NNC(=O)c3ccc4c(c3)OCCO4)nc2c1C
  IC50: inactive

## O=[N+]([O-])c1ccc(O)c(N=Cc2sc3ccccc3c2O)c1
  IC50: > 122 µM (inactive)

## CNC(=S)NN=C(C)c1ccc(OC)cc1O
  IC50: > 122 µM (inactive)

## C=CCS/C(N)=N\N=C\c1cc(Br)cc([N+](=O)[O-])c1O
  IC50: > 40.6 µM (inactive)

## CCC(C)N1C(=O)/C(=C\c2cc3c4c(c2)CCCN4CCC3)C(=O)NC1=S (stereo not drawn)
  IC50: inactive

## C/C(=N\NC(=O)c1nnn(-c2nonc2N)c1CN(C)c1ccccc1)c1ccccc1O
  IC50: inactive

## COc1ccc2nc(Nc3nc4cc5c(cc4s3)OCO5)sc2c1
  IC50: inactive

## COc1ccc(C(=O)NC(=S)NNC(=O)c2c(-c3ccccc3)noc2C)cc1OC
  IC50: > 122 µM (inactive)

## O=C1c2ccccc2C(=O)c2c(NCCCN(CCO)CCO)cccc21
  IC50: > 122 µM (inactive)

## C/C(=N\NC(=S)NCC(C)(C)C)c1cc(F)cc(F)c1O
  IC50: > 122 µM (inactive)

## CC(C)CC(=O)NC(=S)NNC(=O)c1ccc(NC(=O)C2CCCCC2)cc1
  IC50: > 122 µM (inactive)

## CC(C)(C)c1csc(NNC(=O)c2ccc(Br)cc2)n1
  IC50: > 122 µM (inactive)

## Cc1ccccc1C(=O)NNC(=S)NC(=O)c1cccs1
  IC50: > 40.6 µM (inactive)

## CCCC[n+]1c2ccccc2cc2ccccc21
  IC50: inactive

## COc1ccc(C(=O)NNC(=S)NC(=O)c2cccs2)cc1
  IC50: inactive

## O=C(N/N=C/c1cc(Cl)cc([N+](=O)[O-])c1O)C(O)(c1ccccc1)c1ccccc1
  IC50: inactive

## O=C(CCN1C(=O)/C(=C/c2ccccc2Cl)SC1=S)NNC(=O)c1ccccc1O
  IC50: inactive
